Test results reported in the supplement of paper PMC10307832.

Experiments:
Test in all cases: relative viability (nuclei count vs DMSO), 5 days (fraction); higher = more cells survive
[1] = compound: Cc1cc(Nc2cc(N3CCN(C)CC3)nc(Sc3ccc(NC(=O)C4CC4)cc3)n2)n[nH]1 [Tozasertib] + Cc1nc(NC(=O)N2CCC[C@H]2C(N)=O)sc1-c1ccnc(C(C)(C)C(F)(F)F)c1 [Alpelisib] (partner 2 µM)
Method in brief: (§1)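 Relative viability divides the nuclei count in treated wells by that in vehicle wells. Lung cancer cell lines were seeded in 1536-well plates, dosed by pin tool the next day, and fixed and stained after 5 days in one step with final 0.05% Triton X-100, 1% formaldehyde and 1 ug/ml Hoechst. Dosing was a single drug or a fixed anchor-drug dose plus five library-drug doses (not always all listed) in √10 steps, and values are medians of duplicate plates imaged at 4×.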

[2] = compound: Cc1cc(Nc2cc(N3CCN(C)CC3)nc(Sc3ccc(NC(=O)C4CC4)cc3)n2)n[nH]1 [Tozasertib] + CC(C)C[C@H](NC(=O)[C@H](Cc1ccccc1)NC(=O)c1cnccn1)B(O)O [Bortezomib] (partner 0.002 µM)
Method in brief: as §1

[3] = compound: Cc1cc(Nc2cc(N3CCN(C)CC3)nc(Sc3ccc(NC(=O)C4CC4)cc3)n2)n[nH]1 [Tozasertib] + C[C@]1(O)C[C@@H](c2nc(-c3ccc4ccc(-c5ccccc5)nc4c3)c3c(N)nccn32)C1 [Linsitinib] (partner 1 µM)
Method in brief: as §1

[4] = compound: Cc1cc(Nc2cc(N3CCN(C)CC3)nc(Sc3ccc(NC(=O)C4CC4)cc3)n2)n[nH]1 [Tozasertib] + O=C(CCCCCCC(=O)Nc1ccccc1)NO [Vorinostat] (partner 1 µM)
Method in brief: as §1

[5] = compound: Cc1cc(Nc2cc(N3CCN(C)CC3)nc(Sc3ccc(NC(=O)C4CC4)cc3)n2)n[nH]1 [Tozasertib] + CS(=O)(=O)N1CCN(Cc2cc3nc(-c4cccc5[nH]ncc45)nc(N4CCOCC4)c3s2)CC1 [Pictilisib] (partner 1 µM)
Method in brief: as §1

Cell Line | relative viability ([1]; first compound 0.004 µM) | relative viability ([1]; first compound 0.01265 µM) | relative viability ([1]; first compound 0.04 µM) | relative viability ([1]; first compound 0.1265 µM) | relative viability ([2]; first compound 0.004 µM) | relative viability ([2]; first compound 0.01265 µM) | relative viability ([2]; first compound 0.04 µM) | relative viability ([3]; first compound 0.004 µM) | relative viability ([3]; first compound 0.01265 µM) | relative viability ([3]; first compound 0.04 µM) | relative viability ([3]; first compound 0.1265 µM) | relative viability ([4]; first compound 0.004 µM) | relative viability ([4]; first compound 0.01265 µM) | relative viability ([4]; first compound 0.04 µM) | relative viability ([4]; first compound 0.1265 µM) | relative viability ([5]; first compound 0.004 µM) | relative viability ([5]; first compound 0.01265 µM) | relative viability ([5]; first compound 0.04 µM) | relative viability ([5]; first compound 0.1265 µM) | relative viability ([2]; first compound 0.1265 µM)
LU99A | 0.648 | 0.507 | 0.463 | 0.267 | 1.1 | 0.917 | 0.881 | 0.655 | 0.448 | 0.412 | 0.292 | 0.544 | 0.423 | 0.428 | 0.339 | 0.338 | 0.339 | 0.3 | 0.216 | 
SK-LU-1 | 1.27 | 1.02 | 1.19 | 0.561 | 1.18 | 1.07 | 1.27 | 1.32 | 1.09 | 1.03 | 0.957 | 0.893 | 0.788 | 0.82 | 0.34 | 0.71 | 0.508 | 0.639 | 0.458 | 0.813
NCI-H2405 | 0.723 | 0.812 | 0.778 | 0.807 | 1.05 | 0.944 | 0.96 | 1.03 | 0.944 |  | 0.962 | 1.16 | 0.809 | 1.02 | 0.594 | 0.386 | 0.478 | 0.479 | 0.396 | 0.826
NCI-H2009 | 1.18 | 1.17 | 1.15 | 1.14 | 1.12 | 0.938 | 1.08 | 1.19 | 1.22 | 1.15 | 1.19 | 0.772 | 0.696 | 0.735 | 0.578 | 0.851 | 0.79 |  | 0.552 | 0.811
